Source: the supplement of paper PMC10307832

Tests used:
Assay in all cases: relative viability (nuclei count vs DMSO), 5 days (fraction); higher = more cells survive
TGX 221 + Olaparib = compound: CC1=CN2C(=O)C=C(N=C2C(=C1)C(C)NC3=CC=CC=C3)N4CCOCC4 [TGX 221] + O=C(c1cc(Cc2n[nH]c(=O)c3ccccc23)ccc1F)N1CCN(C(=O)C2CC2)CC1 [Olaparib] (partner 8 µM)
Outline: (§1)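 Relative viability divides the nuclei count in treated wells by that in vehicle wells. Lung cancer cell lines were seeded in 1536-well plates, dosed by pin tool the next day, and fixed and stained after 5 days in one step with final 0.05% Triton X-100, 1% formaldehyde and 1 ug/ml Hoechst. Dosing was a single drug or a fixed anchor-drug dose plus five library-drug doses (not always all listed) in √10 steps, and values are medians of duplicate plates imaged at 4×.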

[1] = compound: O=C(CCCCCCNC(=O)c1cnc(N(c2ccccc2)c2ccccc2)nc1)NO [Ricolinostat] + Nc1ncn([C@H]2C[C@H](O)[C@@H](CO)O2)c(=O)n1 [Decitabine] (partner 2 µM)
Outline: as §1

TGX 221 + Luminespib = compound: CC1=CN2C(=O)C=C(N=C2C(=C1)C(C)NC3=CC=CC=C3)N4CCOCC4 [TGX 221] + CCNC(=O)c1noc(-c2cc(C(C)C)c(O)cc2O)c1-c1ccc(CN2CCOCC2)cc1 [Luminespib] (partner 0.01 µM)
Outline: as §1

Ricolinostat + Lapatinib = compound: O=C(CCCCCCNC(=O)c1cnc(N(c2ccccc2)c2ccccc2)nc1)NO [Ricolinostat] + CS(=O)(=O)CCNCc1ccc(-c2ccc3ncnc(Nc4ccc(OCc5cccc(F)c5)c(Cl)c4)c3c2)o1 [Lapatinib] (partner 2 µM)
Outline: as §1

| Cell Line | relative viability (TGX 221 + Olaparib; first compound 0.253 µM) | relative viability (TGX 221 + Olaparib; first compound 0.8 µM) | relative viability (TGX 221 + Olaparib; first compound 2.53 µM) | relative viability (TGX 221 + Olaparib; first compound 8 µM) | relative viability ([1]; first compound 0.253 µM) | relative viability ([1]; first compound 0.8 µM) | relative viability ([1]; first compound 2.53 µM) | relative viability (TGX 221 + Olaparib; first compound 0.08 µM) | relative viability (TGX 221 + Luminespib; first compound 0.08 µM) | relative viability (TGX 221 + Luminespib; first compound 0.253 µM) | relative viability (TGX 221 + Luminespib; first compound 0.8 µM) | relative viability (TGX 221 + Luminespib; first compound 2.53 µM) | relative viability (TGX 221 + Luminespib; first compound 8 µM) | relative viability ([1]; first compound 0.08 µM) | relative viability (Ricolinostat + Lapatinib; first compound 0.08 µM) | relative viability (Ricolinostat + Lapatinib; first compound 0.8 µM) | relative viability (Ricolinostat + Lapatinib; first compound 2.53 µM) | relative viability (Ricolinostat + Lapatinib; first compound 0.253 µM) |
| --- | --- | --- | --- | --- | --- | --- | --- | --- | --- | --- | --- | --- | --- | --- | --- | --- | --- | --- |
| NCI-H1648 | 0.452 | 0.802 | 0.764 | 0.842 | 0.506 | 0.486 | 0.316 |  |  |  |  |  |  |  |  |  |  |  |
| NCI-H1755 | 0.843 | 0.829 | 0.738 | 0.68 | 0.649 | 0.696 | 0.665 | 0.853 | 0.441 | 0.65 | 0.33 | 0.394 | 0.258 | 0.66 | 0.812 | 1.02 | 1.01 |  |
| PC-3 [JPC-3] | 1.02 | 1.25 | 1.06 | 1.07 | 0.736 | 0.757 | 0.758 | 1.12 | 0.584 | 0.651 | 0.693 | 0.73 | 0.681 | 0.766 | 0.351 | 0.414 | 0.475 | 0.466 |
| HCC-44 | 1.04 | 1.05 | 1.08 | 1 | 0.948 | 0.926 | 0.951 | 1 |  | 1.09 | 1.03 | 1.04 | 0.734 | 1 | 1.04 | 0.922 | 0.713 | 0.976 |
| CAL-12T | 0.709 | 0.72 | 0.678 | 0.747 |  |  |  | 0.705 | 0.644 | 0.206 | 0.244 | 0.295 | 0.257 |  | 0.326 | 0.628 | 0.668 | 0.751 |
| ChaGo-K-1 | 0.387 | 0.374 | 0.359 | 0.426 | 0.495 | 0.51 | 0.509 | 0.399 | 0.584 | 0.617 | 0.574 | 0.559 | 0.505 | 0.58 |  |  |  |  |
| NCI-H2126 | 0.885 | 0.886 | 0.813 | 0.871 | 0.555 | 0.561 | 0.481 | 0.927 | 0.909 | 0.832 | 0.842 | 0.764 | 0.808 | 0.563 | 0.615 | 0.719 | 0.801 | 0.751 |
| HCC-827 | 0.55 | 0.615 | 0.526 | 0.0337 | 0.327 | 0.233 | 0.274 | 0.647 | 0.475 | 0.444 | 0.872 | 0.426 | 0.451 | 0.32 | 0.173 | 0.173 | 0.155 | 0.184 |
| LCLC-97TM1 | 0.423 | 0.364 | 0.304 | 0.31 | 0.185 | 0.214 | 0.227 | 0.403 | 0.732 | 0.63 | 0.821 | 0.602 | 0.834 | 0.225 | 0.658 | 0.87 | 1.15 | 1.09 |
| HCC-15 | 0.728 | 0.756 | 0.704 | 0.719 | 0.687 | 0.631 | 0.464 | 0.641 | 0.294 | 0.335 | 0.373 | 0.204 | 0.362 | 0.593 | 0.729 | 0.854 | 0.899 | 0.808 |
| NCI-H727 | 0.732 | 0.545 | 0.679 | 0.745 | 0.934 | 0.957 | 0.952 | 0.681 | 0.345 | 0.315 | 0.303 | 0.257 | 0.363 | 0.807 | 0.523 | 0.862 | 0.77 | 1.02 |
| NCI-H2170 | 0.522 | 0.625 | 0.526 | 0.608 | 0.454 | 0.452 | 0.482 | 0.625 | 0.67 | 0.638 | 0.541 | 0.593 | 0.639 | 0.471 | 0.23 | 0.28 | 0.264 | 0.277 |
| 201T | 0.834 | 0.821 | 0.834 | 0.777 | 0.847 | 0.873 | 0.887 | 0.837 | 1.09 | 1.04 | 1.13 | 0.979 | 0.871 | 0.843 | 0.921 | 0.95 | 1.07 | 1.01 |
| NCI-H838 | 0.717 | 0.767 | 0.634 | 0.553 | 0.471 | 0.489 | 0.539 | 0.758 | 0.219 | 0.335 | 0.296 | 0.344 | 0.266 | 0.44 | 0.683 | 0.955 | 0.873 | 1.08 |
| NCI-H1915 | 0.267 | 0.284 | 0.232 | 0.251 | 0.264 | 0.245 | 0.238 | 0.241 | 0.726 | 0.747 | 0.745 | 0.757 | 0.725 | 0.276 | 0.965 | 0.858 | 0.965 | 0.958 |
| LCLC-103H | 0.738 | 0.793 | 0.764 | 0.717 | 0.745 | 0.76 | 0.739 | 0.747 | 1.01 | 0.988 | 1.02 | 0.806 | 0.763 | 0.726 |  |  |  |  |
| SK-LU-1 | 0.47 | 0.442 | 0.42 | 0.432 | 0.604 | 0.638 | 0.524 | 0.453 | 0.189 | 0.191 | 0.201 | 0.205 | 0.181 | 0.607 | 0.75 | 0.854 | 0.653 | 0.782 |
| NCI-H2347 | 0.563 | 0.521 | 0.528 | 0.457 | 0.664 | 0.585 | 0.61 | 0.592 | 0.595 | 0.335 | 0.437 | 0.325 | 0.274 | 0.626 | 0.849 | 0.874 | 0.82 | 0.908 |
| ABC-1 | 0.86 | 0.908 | 0.781 | 0.876 | 1.03 | 0.989 | 1.03 | 0.8 | 0.477 |  | 0.622 | 0.767 | 0.484 | 0.829 | 1.27 | 1.3 | 1.65 | 1.12 |
